The results in this text go back to US12187709B2 (Genentech, Inc., priority 2021, dated 2025).

The structures appear in SMILES notation.

The target in one experiment is c-Cbl (Homo sapiens (Human), UniProt P22681). The experiment is described as follows: C-Cbl LCK Ub TR-FRET assay (C-cbl Lck HTRF). Format: biochemical. The essentials: (§1)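 After the ubiquitination reaction, detection mixture was added and plates incubated 20 min at room temperature before reading. IC50 values were calculated with wells lacking LCK as the low control and DMSO as the high control.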
In general terms: Time-resolved FRET reads energy transfer from a long-lived donor to a nearby acceptor.

The target in the next experiment is Cbl-b (Homo sapiens (Human), UniProt Q13191). The experiment can be described thus: Cbl-b LCK Ub TR-FRET assay (Cbl-b Lck HTRF). Format: biochemical. To be noted: for IC50: Cbl-b LCK Ub TR-FRET; for fold-selectivity (Cbl-b over C-cbl) / (fold-selectivity) Cbl-b and C-Cbl Selectivity: ratio C-cbl Lck HTRF IC50 / Cbl-b Lck HTRF IC50. The essentials: as §1
Another experiment deals with c-Cbl (residues 47-435) (Homo sapiens (Human), UniProt P22681). The experiment can be described thus: c-Cbl SPR assay. The following applies: 20° C. The experiment is classed as binding. The method, boiled down:
(§2)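 First, protein is captured to 1300-1500 RU. Then compound runs in single cycle kinetics, a blank plus 5 two-fold concentrations up to 500 nM (120 s contact, 50 μl/min, 450 s dissociation). Chaser injections (20 s, 30 μl/min) track occupancy, giving kd, which is fixed when fitting the titration.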

In experiment [1] the target is Human Cbl-b (residues 40-426) (Homo sapiens (Human), UniProt Q13191). The experiment is described as follows: Cbl-b SPR assay. The experiment is classed as binding. The following applies: for Fold of selectivity: C-cbl SPR Kd vs Cbl-b SPR Kd; for Kd: SPR, 20° C. The essentials:
as §2

Chain of c-Cbl (residues 47-435) (P22681 47-435): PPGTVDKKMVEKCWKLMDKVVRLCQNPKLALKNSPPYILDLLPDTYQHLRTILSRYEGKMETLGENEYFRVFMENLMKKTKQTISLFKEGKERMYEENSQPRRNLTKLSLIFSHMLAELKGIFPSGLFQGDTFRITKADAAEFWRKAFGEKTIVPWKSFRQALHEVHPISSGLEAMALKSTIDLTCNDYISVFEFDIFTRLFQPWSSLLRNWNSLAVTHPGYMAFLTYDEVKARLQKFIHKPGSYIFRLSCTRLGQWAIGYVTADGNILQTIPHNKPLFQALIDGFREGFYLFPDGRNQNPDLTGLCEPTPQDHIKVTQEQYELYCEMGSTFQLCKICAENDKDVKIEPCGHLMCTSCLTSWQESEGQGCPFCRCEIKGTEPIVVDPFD
Chain of c-Cbl (P22681 47-435): as above
Chain of Human Cbl-b (residues 40-426) (Q13191 40-426): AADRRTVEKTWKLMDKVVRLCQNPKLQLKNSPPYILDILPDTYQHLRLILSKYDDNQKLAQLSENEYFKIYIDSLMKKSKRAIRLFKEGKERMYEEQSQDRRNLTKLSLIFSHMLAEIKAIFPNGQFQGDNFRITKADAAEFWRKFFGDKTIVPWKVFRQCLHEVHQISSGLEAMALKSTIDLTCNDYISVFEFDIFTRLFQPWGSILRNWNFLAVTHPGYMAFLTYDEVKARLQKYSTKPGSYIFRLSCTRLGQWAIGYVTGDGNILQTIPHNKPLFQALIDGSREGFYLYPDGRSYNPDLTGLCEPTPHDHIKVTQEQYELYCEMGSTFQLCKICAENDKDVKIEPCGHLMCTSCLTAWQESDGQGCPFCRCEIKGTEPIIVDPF
Chain of Cbl-b (Q13191 40-426): as above

Take `Cn1cnnc1[C@]1(c2cccc(N3Cc4c(cc(CNC5(C)CCC5)cc4C(F)(F)F)C3=O)c2)C[C@]2(CCCO2)C1` [Compound 340, 2-(3-((2s, 4r)-2-(4-methyl-4H-1,2,4-triazol-3-yl)-5-oxaspiro[3.4]octan-2-yl)phenyl)-6-(((1-methylcyclobutyl)amino)methyl)-4-(trifluoromethyl) isoindolin-1-one]: the IC50 against c-Cbl was determined as 1100 nM; at Cbl-b it was 110 nM. In addition, the “fold-selectivity (Cbl-b over C-cbl)” value on Cbl-b is reported as 10x. Also, the equilibrium dissociation constant (Kd) on c-Cbl (residues 47-435) was found to be 1900 nM; in experiment [1], 82 nM. The same molecule had a Fold of selectivity in experiment [1] of 24×.

For `Cn1cnnc1[C@]1(c2cccc(N3Cc4c(cc(CNC5(C)CCC5)cc4C(F)(F)F)C3=O)c2)C[C@@]2(CCCO2)C1` [Compound 341, 2-(3-((2r, 4s)-2-(4-methyl-4H-1,2,4-triazol-3-yl)-5-oxaspiro [3.4]octan-2-yl)phenyl)-6-(((1-methylcyclobutyl)amino)methyl)-4-(trifluoromethyl) isoindolin-1-one], the IC50 against c-Cbl came to 100 nM; against Cbl-b, 13 nM. Moreover, the “fold-selectivity (Cbl-b over C-cbl)” value on Cbl-b came out at 8.4x. The Kd at c-Cbl (residues 47-435) came to 120 nM; in experiment [1], 11 nM. Besides, the Fold of selectivity in experiment [1] came to 11×.

On c-Cbl, `CC(=O)[C@H]1C[C@@](c2cccc(N3Cc4c(cc(CNC5(C)CCC5)cc4C(F)(F)F)C3=O)c2)(c2nncn2C)C1` [Compound 346, 2-(3-((1s,3s)-3-acetyl-1-(4-methyl-4H-1,2,4-triazol-3-yl)cyclobutyl)phenyl)-6-(((1-methylcyclobutyl)amino)methyl)-4-(trifluoromethyl)isoindolin-1-one] gave an IC50 of 190 nM. In addition, at Cbl-b, half-maximal inhibition (IC50) required 40 nM and the “fold-selectivity (Cbl-b over C-cbl)” value amounted to 4.6x. At c-Cbl (residues 47-435), this molecule registered a dissociation constant Kd of 200 nM. In experiment [1], the Fold of selectivity came out at 5.4× and the equilibrium dissociation constant (Kd) turned out to be 35 nM.

`CC(=O)[C@H]1C[C@](c2cccc(N3Cc4c(cc(CNC5(C)CCC5)cc4C(F)(F)F)C3=O)c2)(c2nncn2C)C1` [Compound 347, 2-(3-((1r,3r)-3-acetyl-1-(4-methyl-4H-1,2,4-triazol-3-yl)cyclobutyl)phenyl)-6-(((1-methylcyclobutyl)amino)methyl)-4-(trifluoromethyl)isoindolin-1-one]: the values for the IC50 against c-Cbl and against Cbl-b were 30 nM and 10 nM, respectively. Moreover, the “fold-selectivity (Cbl-b over C-cbl)” value at Cbl-b came out at 3x. The results for the Kd (at c-Cbl (residues 47-435); in experiment [1]) were 33 nM and 3 nM, respectively. Also, in experiment [1], the Fold of selectivity amounted to 11×.

In the case of `Cn1cnnc1[C@]1(c2cccc(N3Cc4c(cc(CNC5(C)CCC5)cc4C(F)(F)F)C3=O)c2)C[C@H](OCF)C1` [Compound 370, 2-(3-((1s,3s)-3-(fluoromethoxy)-1-(4-methyl-4H-1,2,4-triazol-3-yl)cyclobutyl)phenyl)-6-(((1-methylcyclobutyl)amino)methyl)-4-(trifluoromethyl)isoindolin-1-one], the IC50 was 42 nM against c-Cbl and 13 nM at Cbl-b. The “fold-selectivity (Cbl-b over C-cbl)” value at Cbl-b turned out to be 3.2x. Besides, the results for the Kd (at c-Cbl (residues 47-435); in experiment [1]) were 39 nM and 4.2 nM, respectively. Moreover, the Fold of selectivity in experiment [1] was 9×.

In turn, `Cn1cnnc1[C@]1(c2cccc(N3Cc4c(cc(CNC5(C)CCC5)cc4C(F)(F)F)C3=O)c2)C[C@@H](OCF)C1` [Compound 371, 2-(3-((1r,3r)-3-(fluoromethoxy)-1-(4-methyl-4H-1,2,4-triazol-3-yl)cyclobutyl)phenyl)-6-(((1-methylcyclobutyl)amino)methyl)-4-(trifluoromethyl)isoindolin-1-one] returned an IC50 on c-Cbl of 42 nM. For the same molecule, at Cbl-b, the half-maximal inhibitory concentration (IC50) turned out to be 8.3 nM and the “fold-selectivity (Cbl-b over C-cbl)” value is recorded as 5.0x. On c-Cbl (residues 47-435), this molecule showed a Kd of 380 nM. In experiment [1], the Fold of selectivity was 7.8× and the Kd was 48 nM.

`CC[C@H]1C[C@@](c2cccc(N3Cc4c(Cl)cc(CNC5(C)CCC5)cc4C3=O)c2)(c2nncn2C)C1` [Compound 374, 4-chloro-2-(3-((1r,3s)-3-ethyl-1-(4-methyl-4H-1,2,4-triazol-3-yl)cyclobutyl)phenyl)-6-(((1-methylcyclobutyl)amino)methyl)isoindolin-1-one]: the half-maximal inhibitory concentration (IC50) at c-Cbl was 14 nM. For the same molecule, at Cbl-b, half-maximal inhibition (IC50) required 6.6 nM and the “fold-selectivity (Cbl-b over C-cbl)” value is recorded as 2.0x. In addition, the Kd on c-Cbl (residues 47-435) came to 10 nM. In experiment [1], this molecule displayed a Fold of selectivity of 11× and a Kd of 0.95 nM.

For the molecule `CC[C@H]1C[C@](c2cccc(N3Cc4c(Cl)cc(CNC5(C)CCC5)cc4C3=O)c2)(c2nncn2C)C1` [Compound 375, 4-chloro-2-(3-((1s,3r)-3-ethyl-1-(4-methyl-4H-1,2,4-triazol-3-yl)cyclobutyl)phenyl)-6-(((1-methylcyclobutyl)amino)methyl)isoindolin-1-one], the IC50 amounted to 16 nM against c-Cbl and 6.4 nM against Cbl-b. Also, the “fold-selectivity (Cbl-b over C-cbl)” value on Cbl-b was determined as 2.5x. For the same molecule, the Kd at c-Cbl (residues 47-435) was 11 nM; in experiment [1], 1 nM. The same molecule came in with a Fold of selectivity in experiment [1] of 11×.

At c-Cbl, `CCCN1CC(c2cc3c(c(C(F)(F)F)c2)CN(c2cccc([C@H](c4nncn4C)C4COC4)c2)C3=O)C1` [Compound 386, (R)-2-(3-((4-methyl-4H-1,2,4-triazol-3-yl)(oxetan-3-yl)methyl)phenyl)-6-(1-propylazetidin-3-yl)-4-(trifluoromethyl)isoindolin-1-one] returned an IC50 of 290 nM. On Cbl-b, inhibition was half-maximal at 110 nM (IC50) and the “fold-selectivity (Cbl-b over C-cbl)” value was 2.6x. In addition, at c-Cbl (residues 47-435), the Kd came to 320 nM. In experiment [1], this molecule displayed a Fold of selectivity of 2.4× and a Kd of 110 nM.

Turning to `Cn1cnnc1[C@]1(c2cccc(N3Cc4c(cc(CNC5(C)CCC5)cc4C(F)(F)F)C3=O)c2)C[C@@](O)(C(F)F)C1` [Compound 405, 2-(3-((1s,3s)-3-(difluoromethyl)-3-hydroxy-1-(4-methyl-4H-1,2,4-triazol-3-yl)cyclobutyl)phenyl)-6-(((1-methylcyclobutyl)amino)methyl)-4-(trifluoromethyl)isoindolin-1-one], the IC50 was found to be 77 nM at c-Cbl and 15 nM at Cbl-b (Example 121). In addition, the “(fold-selectivity) Cbl-b and C-Cbl Selectivity” value on Cbl-b was 5.3x. The Kd is 75 nM at c-Cbl (residues 47-435) and 9.4 nM in experiment [1]. Further, in experiment [1], the Fold of selectivity came out at 7.7×.

Turning to `CO[C@H]1C[C@](c2cccc(N3Cc4c(cc(CNC5CCC5)cc4C(F)(F)F)C3=O)c2)(c2nncn2C)C1` [Compound 414, 6-((cyclobutylamino)methyl)-2-(3-((1r,3r)-3-methoxy-1-(4-methyl-4H-1,2,4-triazol-3-yl)cyclobutyl)phenyl)-4-(trifluoromethyl)isoindolin-1-one], the results for the IC50 on c-Cbl and against Cbl-b (Example 121) were 50 nM and 9.4 nM, respectively. The “(fold-selectivity) Cbl-b and C-Cbl Selectivity” value at Cbl-b came to 5.2x. Further, the Kd worked out at 77 nM at c-Cbl (residues 47-435) and 10 nM in experiment [1]. Besides, in experiment [1], the Fold of selectivity was 7.7×.

On to `CO[C@H]1C[C@](c2cccc(N3Cc4c(cc(CNCC5CC5)cc4C(F)(F)F)C3=O)c2)(c2nncn2C)C1` [Compound 415, 6-(((cyclopropylmethyl)amino)methyl)-2-(3-((1r,3r)-3-methoxy-1-(4-methyl-4H-1,2,4-triazol-3-yl)cyclobutyl)phenyl)-4-(trifluoromethyl)isoindolin-1-one], for which the IC50 against c-Cbl is 48 nM; against Cbl-b (Example 121) it was 11 nM. Besides, the “(fold-selectivity) Cbl-b and C-Cbl Selectivity” value at Cbl-b worked out at 4.2x. For the same molecule, the Kd was 63 nM at c-Cbl (residues 47-435) and 5 nM in experiment [1]. In experiment [1], this molecule registered a Fold of selectivity of 13×.

On to `CO[C@H]1C[C@](c2cccc(N3Cc4c(cc(CNCC5CCC5)cc4C(F)(F)F)C3=O)c2)(c2nncn2C)C1` [Compound 416, 6-(((cyclobutylmethyl)amino)methyl)-2-(3-((1r,3r)-3-methoxy-1-(4-methyl-4H-1,2,4-triazol-3-yl)cyclobutyl)phenyl)-4-(trifluoromethyl)isoindolin-1-one], for which the IC50 was 11 nM against c-Cbl and 7.5 nM on Cbl-b (Example 121). Moreover, the “(fold-selectivity) Cbl-b and C-Cbl Selectivity” value at Cbl-b came to 1.5x. Further, the Kd was determined as 12 nM on c-Cbl (residues 47-435) and 0.87 nM in experiment [1]. This molecule also yielded a Fold of selectivity in experiment [1] of 13×.

As for `CO[C@H]1C[C@](c2cccc(N3Cc4c(cc(CN5CCOCC5)cc4C(F)(F)F)C3=O)c2)(c2nncn2C)C1` [Compound 417, 2-(3-((1r,3r)-3-methoxy-1-(4-methyl-4H-1,2,4-triazol-3-yl)cyclobutyl)phenyl)-6-(morpholinomethyl)-4-(trifluoromethyl)isoindolin-1-one], the IC50 amounted to 3200 nM against c-Cbl and 480 nM against Cbl-b (Example 121). In addition, the “(fold-selectivity) Cbl-b and C-Cbl Selectivity” value at Cbl-b is on record as 6.6x. The results for the Kd (at c-Cbl (residues 47-435); in experiment [1]) were 8600 nM and 1100 nM, respectively. The molecule also yielded a Fold of selectivity in experiment [1] of 7.2×.

In the case of `CO[C@H]1C[C@](c2cccc(N3Cc4c(cc(CN5CCCC5)cc4C(F)(F)F)C3=O)c2)(c2nncn2C)C1` [Compound 418, 2-(3-((1r,3r)-3-methoxy-1-(4-methyl-4H-1,2,4-triazol-3-yl)cyclobutyl)phenyl)-6-(pyrrolidin-1-ylmethyl)-4-(trifluoromethyl)isoindolin-1-one], the IC50 against c-Cbl is 1400 nM; on Cbl-b (Example 121), 180 nM. Further, the “(fold-selectivity) Cbl-b and C-Cbl Selectivity” value on Cbl-b was found to be 7.3x. Further, the Kd on c-Cbl (residues 47-435) stood at 1200 nM; in experiment [1], 140 nM. The molecule further came in with a Fold of selectivity in experiment [1] of 8.7×.

What is called IC50 is the concentration needed to halve the response being measured. For orientation: Kd means the constant that tells how readily two partners part at equilibrium. A lower Kd goes with a tighter complex.
